Values of other authors in US20090246262A1, “EASILY APPLIED FIELD DRESSING FOR WOUNDS” (Valor Medical, Inc., priority 2008, published 2009).

Experiments:
[1] = in vivo
[2] = upon contact with moist tissues

time to polymerize (remains as a monomer) [2] | Structure (SMILES) | histotoxicity [1]
 | C=C(C#N)C(=O)OCC [ethyl] | histotoxic
30 to 55 s | C=C(C#N)C(=O)OC [methyl homolog, methyl cyanoacrylate] | histoxicity severely limited its clinical usefulness
 | C=C(C#N)C(=O)OC [Eastman 910] | histotoxic
